In paper PMC6850767, “Light-at-night exposure affects brain development through pineal allopregnanolone-dependent mechanisms” (eLife, 2019):

Molecular target: T1, chicken mPRα (membrane progesterone receptor α) (Gallus gallus, UniProt C6KGD4)
T1 construct: gene PAQR7; membrane fraction or whole cells; band approx. 42 kDa
T1 sequence (C6KGD4 1-346): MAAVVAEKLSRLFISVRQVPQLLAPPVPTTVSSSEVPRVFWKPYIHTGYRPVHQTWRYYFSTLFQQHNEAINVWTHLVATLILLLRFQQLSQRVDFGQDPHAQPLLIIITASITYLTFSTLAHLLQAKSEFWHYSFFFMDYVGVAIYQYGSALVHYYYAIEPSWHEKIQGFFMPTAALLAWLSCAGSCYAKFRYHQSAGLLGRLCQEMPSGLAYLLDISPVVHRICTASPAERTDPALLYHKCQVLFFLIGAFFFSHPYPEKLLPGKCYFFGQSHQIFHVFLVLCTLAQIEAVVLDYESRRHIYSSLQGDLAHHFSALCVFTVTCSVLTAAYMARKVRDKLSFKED
Assay: radioligand saturation binding, Scatchard plot, cell membrane fraction

CC(=O)[C@H]1CC[C@H]2[C@@H]3CC[C@H]4C[C@H](O)CC[C@]4(C)[C@H]3CC[C@]12C [compound 2, allopregnanolone]
Kd: 11.8 ± 3.1 nM
